# Measured values reported in ChEMBL document CHEMBL1275440, “In vitro activity of telavancin against resistant gram-positive bacteria” (2008).
# Calls of active or inactive are those of the source. No cut-off for these calls is given here.
# Key:
# [1] = system: Staphylococcus haemolyticus; experiment: Antibacterial activity against methicillin resistant coagulase-negative Staphylococcus haemolyticus clinical isolate by broth microdilution method; type: functional
# Streptococcus pneumoniae [2] = experiment: Antibacterial activity against multidrug-resistant Streptococcus pneumoniae clinical isolate by broth microdilution method; type: functional
# [3] = system: Staphylococcus epidermidis; experiment: Antibacterial activity against methicillin resistant Staphylococcus epidermidis clinical isolate assessed as susceptibility level by broth microdilution method; type: functional
# [4] = system: Staphylococcus auricularis; experiment: Antibacterial activity against methicillin resistant coagulase-negative Staphylococcus auricularis clinical isolate by broth microdilution method; type: functional
# Streptococcus agalactiae [5] = experiment: Antibacterial activity against Streptococcus agalactiae group B clinical isolate by broth microdilution method; type: functional
# Streptococcus agalactiae [6] = experiment: Antibacterial activity against Streptococcus agalactiae group B clinical isolate assessed as susceptibility level by broth microdilution method; type: functional
# Streptococcus mitis [7] = experiment: Antibacterial activity against Streptococcus mitis clinical isolate assessed as susceptibility level by broth microdilution method; type: functional
# [8] = system: Staphylococcus epidermidis; experiment: Antibacterial activity against methicillin resistant Staphylococcus epidermidis clinical isolate by broth microdilution method; type: functional
# Enterococcus faecalis [9] = system: Enterococcus faecalis
# [10] = system: Streptococcus constellatus; experiment: Antibacterial activity against Streptococcus constellatus clinical isolate by broth microdilution method; type: functional
# Streptococcus pyogenes [11] = experiment: Antibacterial activity against Streptococcus pyogenes group A clinical isolate assessed as susceptibility level by broth microdilution method; type: functional
# Enterococcus faecalis [12] = experiment: Antibacterial activity against vancomycin resistant Enterococcus faecalis VanB clinical isolate by broth microdilution method; type: functional
# Streptococcus viridans [13] = experiment: Antibacterial activity against Streptococcus viridans clinical isolate by broth microdilution method; type: functional
# Enterococcus faecalis [14] = experiment: Antibacterial activity against vancomycin resistant Enterococcus faecalis VanA clinical isolate by broth microdilution method; type: functional
# Streptococcus pyogenes [15] = experiment: Antibacterial activity against Streptococcus pyogenes MED 2040 by broth microdilution method; type: functional
# Streptococcus viridans [16] = experiment: Antibacterial activity against Streptococcus viridans clinical isolate assessed as susceptibility level by broth microdilution method; type: functional
# Staphylococcus aureus [17] = experiment: Antibacterial activity against methicillin resistant Staphylococcus aureus clinical isolate by broth microdilution method; type: functional
# Streptococcus oralis [18] = experiment: Antibacterial activity against Streptococcus oralis clinical isolate assessed as susceptibility level by broth microdilution method; type: functional
# Enterococcus faecium [19] = experiment: Antibacterial activity against vancomycin resistant Enterococcus faecium VanB clinical isolate assessed as susceptibility level by broth microdilution method; type: functional
# Staphylococcus capitis [20] = experiment: Antibacterial activity against methicillin resistant coagulase-negative Staphylococcus capitis clinical isolate by broth microdilution method; type: functional
# [21] = system: Staphylococcus saprophyticus; experiment: Antibacterial activity against methicillin resistant coagulase-negative Staphylococcus saprophyticus clinical isolate assessed as susceptibility level by broth microdilution method; type: functional
# Enterococcus faecalis [22] = experiment: Antibacterial activity against vancomycin resistant Enterococcus faecalis VanA clinical isolate assessed as susceptibility level by broth microdilution method; type: functional
# [23] = system: Staphylococcus haemolyticus; experiment: Antibacterial activity against methicillin resistant coagulase-negative Staphylococcus haemolyticus clinical isolate assessed as susceptibility level by broth microdilution method; type: functional
# [24] = system: Streptococcus constellatus; experiment: Antibacterial activity against Streptococcus constellatus clinical isolate assessed as susceptibility level by broth microdilution method; type: functional
# Streptococcus pneumoniae [25] = experiment: Antibacterial activity against penicillin resistant Streptococcus pneumoniae clinical isolate by broth microdilution method; type: functional
# Streptococcus pneumoniae [26] = experiment: Antibacterial activity against penicillin intermediate Streptococcus pneumoniae clinical isolate by broth microdilution method; type: functional
# Streptococcus agalactiae [27] = experiment: Antibacterial activity against Streptococcus agalactiae MED 2038 by broth microdilution method; type: functional
# Streptococcus mitis [28] = experiment: Antibacterial activity against Streptococcus mitis clinical isolate by broth microdilution method; type: functional
# Enterococcus faecium [29] = experiment: Antibacterial activity against vancomycin resistant Enterococcus faecium VanA clinical isolate assessed as susceptibility level by broth microdilution method; type: functional
# Staphylococcus aureus [30] = experiment: Antibacterial activity against methicillin resistant Staphylococcus aureus clinical isolate assessed as susceptibility level by broth microdilution method; type: functional
# Enterococcus faecium [31] = experiment: Antibacterial activity against vancomycin resistant Enterococcus faecium VanA clinical isolate by broth microdilution method; type: functional
# [32] = (§1) Antibacterial activity against methicillin resistant coagulase-negative Staphylococcus hominis subsp. novobiosepticus clinical isolate by broth microdilution method; type: functional
# Streptococcus pneumoniae [33] = experiment: Antibacterial activity against penicillin resistant Streptococcus pneumoniae clinical isolate assessed as susceptibility level by broth microdilution method; type: functional
# Streptococcus oralis [34] = experiment: Antibacterial activity against Streptococcus oralis clinical isolate by broth microdilution method; type: functional
# Enterococcus faecium [35] = experiment: Antibacterial activity against vancomycin resistant Enterococcus faecium VanB clinical isolate by broth microdilution method; type: functional
# Streptococcus pneumoniae [36] = experiment: Antibacterial activity against multidrug-resistant Streptococcus pneumoniae clinical isolate assessed as susceptibility level by broth microdilution method; type: functional
# Streptococcus pneumoniae [37] = experiment: Antibacterial activity against multidrug resistant Streptococcus pneumoniae MED 1090 by broth microdilution method; type: functional
# [38] = (§2) Antibacterial activity against methicillin resistant coagulase-negative Staphylococcus hominis subsp. novobiosepticus clinical isolate assessed as susceptibility level by broth microdilution method; type: functional
# [39] = system: Staphylococcus auricularis; experiment: Antibacterial activity against methicillin resistant coagulase-negative Staphylococcus auricularis clinical isolate assessed as susceptibility level by broth microdilution method; type: functional
# Streptococcus pyogenes [40] = experiment: Antibacterial activity against Streptococcus pyogenes group A clinical isolate by broth microdilution method; type: functional
# Enterococcus faecalis [41] = experiment: Antibacterial activity against vancomycin resistant Enterococcus faecalis VanB clinical isolate assessed as susceptibility level by broth microdilution method; type: functional
# [42] = system: Streptococcus intermedius; experiment: Antibacterial activity against Streptococcus intermedius clinical isolate by broth microdilution method; type: functional
# [43] = system: Streptococcus intermedius; experiment: Antibacterial activity against Streptococcus intermedius clinical isolate assessed as susceptibility level by broth microdilution method; type: functional
# Streptococcus pneumoniae [44] = experiment: Antibacterial activity against penicillin intermediate Streptococcus pneumoniae clinical isolate assessed as susceptibility level by broth microdilution method; type: functional
# Staphylococcus capitis [45] = experiment: Antibacterial activity against methicillin resistant coagulase-negative Staphylococcus capitis clinical isolate assessed as susceptibility level by broth microdilution method; type: functional
# [46] = system: Staphylococcus saprophyticus; experiment: Antibacterial activity against methicillin resistant coagulase-negative Staphylococcus saprophyticus clinical isolate by broth microdilution method; type: functional
# [47] = system: Staphylococcus hominis subsp. novobiosepticus; experiment: as §1; type: functional
# [48] = system: Staphylococcus hominis subsp. novobiosepticus; experiment: as §2; type: functional
compound,measurement,setting,value
CN[C@H](CC(C)C)C(=O)N[C@H]1C(=O)N[C@@H](CC(N)=O)C(=O)N[C@H]2C(=O)N[C@H]3C(=O)N[C@H](C(=O)N[C@H](C(=O)O)c4cc(O)cc(O)c4-c4cc3ccc4O)[C@H](O)c3ccc(c(Cl)c3)Oc3cc2cc(c3O[C@@H]2O[C@H](CO)[C@@H](O)[C@H](O)[C@H]2O[C@H]2C[C@](C)(N)[C@H](O)[C@H](C)O2)Oc2ccc(cc2Cl)[C@H]1O [VANCOMYCIN],MIC50,[1],2 µg/mL
same,MIC90,[1],2 µg/mL
same,MIC50,Streptococcus pneumoniae [2],0.25 µg/mL
same,MIC90,Streptococcus pneumoniae [2],0.25 µg/mL
same,Activity,[3],100%
same,MIC50,[4],2 µg/mL
same,MIC90,[4],2 µg/mL
same,MIC,Streptococcus agalactiae [5],0.25 µg/mL
same,MIC50,Streptococcus agalactiae [5],0.25 µg/mL
same,MIC90,Streptococcus agalactiae [5],0.5 µg/mL
same,Activity,Streptococcus agalactiae [6],100%
same,Activity,Streptococcus mitis [7],100%
same,MIC,[8],0.5 µg/mL
same,MIC50,Enterococcus faecalis [9],inactive
same,MIC90,Enterococcus faecalis [9],inactive
same,MIC,[10],0.25 µg/mL
same,MIC50,[10],inactive
same,MIC90,[10],inactive
same,Activity,Streptococcus pyogenes [11],98%
same,MIC,Enterococcus faecalis [12],32 µg/mL
same,MIC,Streptococcus viridans [13],0.25 µg/mL
same,MIC50,Streptococcus viridans [13],inactive
same,MIC90,Streptococcus viridans [13],inactive
same,MIC50,Enterococcus faecalis [14],512 µg/mL
same,MIC90,Enterococcus faecalis [14],> 512 µg/mL
same,MIC,Streptococcus pyogenes [15],0.25 µg/mL
same,Activity,Streptococcus viridans [16],100%
same,Activity,Staphylococcus aureus [17],100%
same,MIC50,Staphylococcus aureus [17]; Staphylococcus aureus,0.5 µg/mL
same,MIC90,Staphylococcus aureus [17]; Staphylococcus aureus,1 µg/mL
same,Activity,Streptococcus oralis [18],100%
same,Activity,Enterococcus faecium [19],0%
same,MIC50,Staphylococcus capitis [20],2 µg/mL
same,MIC90,Staphylococcus capitis [20],2 µg/mL
same,Activity,[21],100%
same,Percent of isolates susceptible,Enterococcus faecalis [22],0%
same,Activity,[23],100%
same,Activity,[24],100%
same,MIC50,Streptococcus pneumoniae [25],0.25 µg/mL
same,MIC90,Streptococcus pneumoniae [25],0.25 µg/mL
same,MIC50,Streptococcus pneumoniae [26],0.5 µg/mL
same,MIC90,Streptococcus pneumoniae [26],0.5 µg/mL
same,MIC,Streptococcus agalactiae [27],0.25 µg/mL
same,MIC,Streptococcus mitis [28],0.25 µg/mL
same,MIC50,Streptococcus mitis [28],inactive
same,MIC90,Streptococcus mitis [28],inactive
same,Activity,Enterococcus faecium [29],0%
same,Activity,Staphylococcus aureus [30],100%
same,MIC50,Enterococcus faecium [31],512 µg/mL
same,MIC90,Enterococcus faecium [31],> 512 µg/mL
same,MIC50,[32],2 µg/mL
same,MIC90,[32],2 µg/mL
same,Activity,Streptococcus pneumoniae [33],100%
same,MIC,Streptococcus oralis [34],0.25 µg/mL
same,MIC50,Streptococcus oralis [34],inactive
same,MIC90,Streptococcus oralis [34],inactive
same,MIC50,Enterococcus faecium [35],512 µg/mL
same,MIC90,Enterococcus faecium [35],> 512 µg/mL
same,Activity,Streptococcus pneumoniae [36],100%
same,MIC,Streptococcus pneumoniae [37],0.25 µg/mL
same,Activity,[38],100%
same,Activity,[39],100%
same,MIC50,Streptococcus pyogenes [40],0.25 µg/mL
same,MIC90,Streptococcus pyogenes [40],0.5 µg/mL
same,Activity,Enterococcus faecalis [41],0%
same,MIC,[42],0.25 µg/mL
same,MIC50,[42],inactive
same,MIC90,[42],inactive
same,Activity,[43],100%
same,Activity,Streptococcus pneumoniae [44],100%
same,Activity,Staphylococcus capitis [45],100%
same,MIC50,[46],2 µg/mL
same,MIC90,[46],2 µg/mL
GENTAMICIN,MIC50,[1],16 µg/mL
same,MIC90,[1],> 16 µg/mL
same,Activity,[3],35%
same,MIC50,[4],16 µg/mL
same,MIC90,[4],> 16 µg/mL
same,MIC50,[8],16 µg/mL
same,MIC90,[8],> 16 µg/mL
same,Activity,Staphylococcus aureus [17],97%
same,MIC50,Staphylococcus aureus [17],0.5 µg/mL
same,MIC90,Staphylococcus aureus [17],2 µg/mL
same,MIC50,Staphylococcus capitis [20],16 µg/mL
same,MIC90,Staphylococcus capitis [20],> 16 µg/mL
same,Activity,[21],29%
same,Activity,[23],29%
same,Activity,Staphylococcus aureus [30],97%
same,MIC50,[47],16 µg/mL
same,MIC90,[47],> 16 µg/mL
same,Activity,[48],29%
same,Activity,[39],29%
same,Activity,Staphylococcus capitis [45],29%
same,MIC50,[46],16 µg/mL
same,MIC90,[46],> 16 µg/mL
